The source of these data is patent US6362225B1 (priority 1999, dated 2002).

One series relates to herpes simplex II. The experiment in a line: Lysine nasal spray for herpes outbreaks. Format: in vivo, human.
For series [1] the following is noted: cited from earlier work.
Another series has as its system canker sore. The experiment in a line: Lysine solution applied directly to canker sores and cold sores. Format: in vivo, human. The source says: Another test subject with a long history of canker sore outbreaks reported that once one canker sore appeared several more usually followed within a day or two. These sores were quite painful and often lasted from five to ten days. The subject was given the lysine solution and told to apply it directly to the lesion. […] The application was repeated every three or four hours until the canker sore was completely healed. […] Since this subject has been using the lysine solution the outbreaks of canker sores are infrequent and are healed very quickly.
As shown above, the use of lysine by targeting the infected areas may shorten the duration of the outbreak and may even prevent illnesses such as colds and sore throats if used directly after contact with an infected person or at the onset of symptoms. Essentially the use of the lysine solution or composition in the nose, mouth and/or lungs, or other specific areas of the body may represent a topical application of lysine to the infected area. Thus, the duration of an infection may be considerably lessened by applying lysine to that infected area.

Series [2] relates to cold virus. The experiment in a line: Nasal spray of lysine solution in test subjects with colds or flu. Format: in vivo, human.
The test system of series [3] is upper respiratory infections settled in the lungs. Briefly: Lysine solution by nebulizer directly into the lungs. The conditions noted are these: one test subject. Format: in vivo, human. The source says:
Often upper respiratory infections settle in the lungs and can cause prolonged discomfort, coughing and heavy chest congestion.

Series [4] deals with cold virus. The experiment in a line: Nasal spray of lysine after exposure to persons with severe colds. Format: in vivo, human. The settings on record: nasal spray continued for at least three days after exposure to persons with severe colds. The source says:
The administration of lysine in the form of a nasal spray was used by other test subjects after being exposed to persons with severe colds, that is persons who were frequently coughing and sneezing.

The next series concerns sore throat. Briefly: Lysine nasal inhalation or throat spray for sore throat. Format: in vivo, human. The conditions noted are these: one test subject. The source says:
A test subject used nasal inhalation of lysine every three hours to treat a sore throat and reported relief after one day.
Another test subject who has suffered from throat infections for many years used the lysine spray directly into the throat at the first sign of soreness on at least four occassions. The treatment was repeated every three to four hours for two days.

[5] abbreviates: ten test subjects, cold virus, […], 3500 mg lysine in 1.5 oz. 0.65% saline, spray twice in each nostril every three hours.

SMILES strings stand for the structures.

Regarding `Cl.NCCCC[C@H](N)C(=O)O` [lysine, L-lysine monohydrochloride], the “Effect on herpes simplex II outbreak” value in the series on herpes simplex II (one test subject with twenty year history, nasal spray every three hours for one day) is listed as “stopped the outbreak”. Further, the “Response of genital herpes outbreaks” value with herpes simplex II (one test subject, nasal spray plus lysine tablets, compared with tablets alone) is listed as “responded much faster than with the tablets alone”. Further, in the series with herpes simplex II (same test subject, regular use of the nasal spray), the “Prevention of herpes outbreaks” value is “prevented herpes outbreaks to the point of almost eliminating them altogether”. Besides, the Toxic levels result in series [1] (general statement) is “No toxic levels”. In addition, the “Adverse side effects of ingested lysine” value in series [1] (high doses ingested as tablets) is given as “gastric distress”. The “Secondary canker sore lesions” value in the series on canker sore (one test subject, application repeated every three or four hours) is recorded as “no secondary lesions developed”. Also, the “Time until canker sore completely healed” value in the series on canker sore (one test subject, application repeated every three or four hours, sores previously lasted five to ten days) is reported as “three to five”. In addition, the “Pain associated with canker sore” value with canker sore (one test subject, solution applied directly to the lesion) is listed as “alleviated as soon as the solution was applied”. The “Healing response of cold sores and canker sores” value in the series on canker sore (solution applied directly, in contrast to ingestion of lysine tablets alone) is recorded as “fast healing response”. Moreover, the “Effectiveness of treatment at lengthened intervals” value in the series on cold virus [2] (colds or flu, intervals lengthened to six or more hours, compared with one to four hours) is “considerably less effective”. In addition, in the series with cold virus [2] (setting [5]), the “Number of subjects reporting relief obtained in 1 day” value is on record as 5, the “Number of subjects reporting relief obtained in 2 days” value worked out at 3 and the “Number of subjects reporting relief obtained in 3 days” value amounted to 2. Also, in series [3], the “Onset of lessening of lung symptoms” value was “lessened almost immediately” and the “Time until symptoms cleared up completely” value is reported as “one to three”. For the same molecule, in the series on cold virus [4], the “Cold symptoms after exposure” value was “never felt cold symptoms at all”. Also, the “Time to relief of sore throat” value in the series with sore throat (nasal inhalation every three hours) was “one”. For the same molecule, in the series on sore throat (spray directly into the throat at first sign of soreness, every three to four hours for two days, at least four occasions), the “Development of full sore throat” value is reported as “never occurred”.
